Measured values: patent US4370416A (Kikkoman Corporation, priority 1980, dated 1983)

Assays:
[1] = test system: HCEH; test: Activity of HCEH on hydroxy-cinnamic acid ester substances and tannic acid (liquid chromatography); format: biochemical; settings: for Relative activity: HCEH on the substance as substrate, 0.1 M phosphate buffer pH 6.5, molar ratio of produced hydrolyzate; for Action and substrate specificity of the enzyme (hydrolysis of the ester linkage): qualitative
Experimental: Here, the activity of HCEH on various hydroxy-cinnamic acid ester substances and tannic acid was determined by measuring the quantity of their hydrolysis by means of liquid chromatography using 0.1 M phosphate buffer solution (pH 6.5). The results are shown in Table 3, where the activity is expressed as molar ratio of produced hydrolyzate.

[2] = test system: novel HCEH; test: Inhibition of the novel HCEH; format: biochemical

| Compound | Relative activity [1] | Action and substrate specificity of the enzyme (hydrolysis of the ester linkage) [1] | Inhibition of HCEH [2] |
| --- | --- | --- | --- |
| O=C(C=Cc1ccc(O)c(O)c1)OC(C(=O)O)C(O)C(=O)O (stereo not shown) | 69.8% | hydrolyze the ester linkage |  |
| O=C(C=Cc1ccc(O)c(O)c1)OC1CC(O)(C(=O)O)CC(O)C1O (stereo not shown) [3-caffeoyl quinic acid] | 100% | hydrolyze the ester linkage |  |
| Oc1cccc2cccnc12 [8-hydroxyquinoline] |  |  | inhibited |
| [Fe+2] [Fe^++] |  |  | inhibited |
| [Hg+2] [Hg^++] |  |  | inhibited |
| COc1cc(C=CC(=O)OC(C(=O)O)C(O)C(=O)O)ccc1O (stereo not shown) [feruloyl tartaric acid] |  | hydrolyze the ester linkage |  |
| II [iodine] |  |  | inhibited |
| O=C(O)c1cc[c]([Hg][Cl])cc1 [p-CMB, p-chloromercury-benzoic acid] |  |  | inhibited |
| O=C(C=Cc1ccc(O)cc1)OC(C(=O)O)C(O)C(=O)O (stereo not shown) [p-coumaroyl tartaric acid] | 78.3% | hydrolyze the ester linkage |  |
| Tannic acid | 0% |  |  |
